Consider six molecules from patent US8664206B2, “Diastereomers of 2-methylene-19-nor-22-methyl-1α,25-dihydroxyvitamin D3” (Wisconsin Alumni Research Foundation, priority 2010, dated 2014).

Entries after “also recorded” stand apart in the source; their conditions may differ.

Test [1] relates to 24-hydroxylase (24OHase) gene promoter. Kind of test: In vitro transcription assay (24-hydroxylase promoter-luciferase in ROS 17/2.8 bone cells). Type of test: cell-based, rat. The note with it: for EC50: Rattus norvegicus; for 24OHase Transcription Relative Activity: relative to the native hormone 1,25(OH)2D3 in the same assay, (value for native hormone)/(value for working example), >1 = more active. The procedure:
Transcription activity was measured in ROS 17/2.8 (bone) cells that were stably transfected with a 24-hydroxylase (24OHase) gene promoter upstream of a luciferase reporter gene (Arbour et al., 1998). Cells were given a range of doses. Sixteen hours after dosing the cells were harvested and luciferase activities were measured using a luminometer. RLU=relative luciferase units.

For another test, the system named is HL-60 cells. Briefly: HL-60 differentiation (nitro blue tetrazolium reduction). The settings on record: for EC50: Homo sapiens, HL-60; for HL-60 Differentiation Relative Activity: relative to the native hormone 1,25(OH)2D3 in the same assay, (value for native hormone)/(value for working example), >1 = more active; for HL-60 cell differentiation, times more potent than the native hormone: fold MORE potent/active than 1,25(OH)2D3. The class given is cell-based, human. The procedure: The study drugs were dissolved in ethanol and the concentrations determined using UV spectrophotometry. Serial dilutions were prepared so that a range of drug concentrations could be tested without changing the final concentration of ethanol (≦0.2%) present in the cell cultures.
Human promyelocytic leukemia (HL60) cells were grown in RPMI-1640 medium containing 10% fetal bovine serum. The cells were incubated at 37° C. in the presence of 5% CO2.
HL60 cells were plated at 1.2×10^5 cells/ml. Eighteen hours after plating, cells in duplicate were treated with drug. Four days later, the cells were harvested and a nitro blue tetrazolium reduction assay was performed (Collins et al., 1979; J. Exp. Med. 149:969-974). The percentage of differentiated cells was determined by counting a total of 200 cells and recording the number that contained intracellular black-blue formazan deposits. Verification of differentiation to monocytic cells was determined by measuring phagocytic activity (data not shown).

In test [2] the target is T1, vitamin D receptor (full-length recombinant rat receptor) (Rattus norvegicus, UniProt P13053).
T1 construct: Full-length recombinant rat receptor was expressed in E. coli; His tag (C); made in house; host or cells: E. coli BL21(DE3) Codon Plus RIL
T1 sequence (P13053 1-423): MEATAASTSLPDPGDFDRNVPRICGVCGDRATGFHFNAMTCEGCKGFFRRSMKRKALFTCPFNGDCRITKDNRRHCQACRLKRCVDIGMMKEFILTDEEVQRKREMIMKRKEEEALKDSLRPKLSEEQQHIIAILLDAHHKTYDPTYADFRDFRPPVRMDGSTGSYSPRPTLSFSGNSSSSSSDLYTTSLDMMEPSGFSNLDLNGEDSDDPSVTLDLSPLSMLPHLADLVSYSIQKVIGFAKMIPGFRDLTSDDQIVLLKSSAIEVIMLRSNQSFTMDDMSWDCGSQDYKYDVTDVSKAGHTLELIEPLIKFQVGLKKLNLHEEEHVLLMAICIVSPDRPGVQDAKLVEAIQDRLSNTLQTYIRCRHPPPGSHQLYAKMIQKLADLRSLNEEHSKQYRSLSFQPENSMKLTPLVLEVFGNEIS
Briefly: Vitamin D receptor competitive binding. The note with it: for binding to the nuclear vitamin D receptor compared with 1,25(OH)2D3 (in words): competitive binding against 3H-1,25(OH)2D3, recombinant rat receptor; for Ki: read-out: Competitive VDR Binding (Ki). As for the experimental part: Full-length recombinant rat receptor was expressed in E. coli BL21(DE3) Codon Plus RIL cells and purified to homogeneity using two different column chromatography systems. The first system was a nickel affinity resin that utilizes the C-terminal histidine tag on this protein. The protein that was eluted from this resin was further purified using ion exchange chromatography (S-Sepharose Fast Flow). Aliquots of the purified protein were quick frozen in liquid nitrogen and stored at −80° C. until use. For use in binding assays, the protein was diluted in TEDK50 (50 mM Tris, 1.5 mM EDTA, pH 7.4, 5 mM DTT, 150 mM KCl) with 0.1% Chaps detergent. The receptor protein and ligand concentration was optimized such that no more than 20% of the added radiolabeled ligand was bound to the receptor.
Unlabeled ligands were dissolved in ethanol and the concentrations determined using UV spectrophotometry (1,25(OH)2D3: molar extinction coefficient=18,200 and λmax=265 nm; Analogs: molar extinction coefficient=42,000 and λmax=252 nm). Radiolabeled ligand (^3H-1,25(OH)2D3, ˜159 Ci/mmole) was added in ethanol at a final concentration of 1 nM.
Radiolabeled and unlabeled ligands were added to 100 mcl of the diluted protein at a final ethanol concentration of ≦10%, mixed and incubated overnight on ice to reach binding equilibrium. The following day, 100 mcl of hydroxylapatite slurry (50%) was added to each tube and mixed at 10-minute intervals for 30 minutes. The hydroxylapatite was collected by centrifugation and then washed three times with Tris-EDTA buffer (50 mM Tris, 1.5 mM EDTA, pH 7.4) containing 0.5% Titron X-100. After the final wash, the pellets were transferred to scintillation vials containing 4 ml of Biosafe II scintillation cocktail, mixed and placed in a scintillation counter. Total binding was determined from the tubes containing only radiolabeled ligand.

The subject of test [3] is Sprague-Dawley rats. Briefly: Intestinal calcium transport (everted gut sac method). The class given is in vivo, rat. The settings on record: for intestinal calcium transport activity compared with 1,25(OH)2D3 (in words) / net intestinal calcium transport, serosal to mucosal ratio: rat; for intestinal calcium transport activity compared with 1,25(OH)2D3 (in words): intraperitoneal doses; for net intestinal calcium transport, serosal to mucosal ratio: relative to vehicle. As for the experimental part:
(§1) Male, weanling Sprague-Dawley rats were placed on Diet 11 (0.47% Ca) diet+AEK oil for one week followed by Diet 11 (0.02% Ca)+AEK oil for 3 weeks. The rats were then switched to a diet containing 0.47% Ca for one week followed by two weeks on a diet containing 0.02% Ca. Dose administration began during the last week on 0.02% calcium diet. Four consecutive intraperitoneal doses were given approximately 24 hours apart. Twenty-four hours after the last dose, blood was collected from the severed neck and the concentration of serum calcium determined as a measure of bone calcium mobilization. The first 10 cm of the intestine was also collected for intestinal calcium transport analysis using the everted gut sac method.

The subject of test [4] is Sprague-Dawley rats. Kind of test: Bone calcium mobilization (serum calcium). Type of test: in vivo, rat. The note with it: for bone calcium mobilization activity compared with 1,25(OH)2D3 (in words): intraperitoneal doses. The procedure:
as §1

In the case of `C=C1C(O)CC(=CC=C2CCCC3(C)C2CCC3[C@H](C)[C@H](C)CCC(C)(C)O)CC1O` (stereo partly drawn) [SAG-2, (20R,22R)-2-methylene-19-nor-22-methyl-1α,25-dihydroxyvitamin D3], the “24-hydroxylase transcription activity compared with 1,25(OH)2D3 (in words)” value in test [1] (bone cells) is recorded as “unexpectedly low in comparison to the native hormone”.
Consider `C=C1[C@H](O)CC(=C/C=C2\CCC[C@@]3(C)C2CC[C@@H]3[C@@H](C)[C@@H](C)CCC(C)(C)O)C[C@H]1O` (stereo partly drawn) [AGS-2, (20S,22S)-2-methylene-19-nor-22-methyl-1α,25-dihydroxyvitamin D3], for which, in test [1], the response was half-maximal at 3 nM (EC50) and the “24OHase Transcription Relative Activity” value is 0.1. In addition, the “24-hydroxylase transcription activity compared with 1,25(OH)2D3 (in words)” value in test [1] (bone cells) is listed as “relatively high 24-hydroxylase transcription activity”. Moreover, the “transcription of the 24-hydroxylase gene, times less potent than 1,25(OH)2D3” value in test [1] (rat osteosarcoma cells, fold LESS potent) was “about 10 times”. Besides, in the test on HL-60 cells, the “cell differentiation activity (in words)” value is recorded as “relatively high cell differentiation activity”, a half-maximal response (EC50) required 20 nM and the “HL-60 Differentiation Relative Activity” value is listed as 0.15. Also, in test [2], the “binding to the nuclear vitamin D receptor compared with 1,25(OH)2D3 (in words)” value (“binding … compared with 1,25(OH)2D3 (in words)” for short) is given as “lower affinity relative to 1,25-(OH)2D3; also recorded: lower affinity than 1,25(OH)2D3; also recorded: bind the vitamin D receptor” and the Ki came out at 8 nM. Also, in the test with Sprague-Dawley rats [3] (at 780 pM dosage), the “Net Intestinal Ca2+ Transport (serosal Ca2+ to mucosal Ca2+ ratio, S/M)” value is on record as 4.3. The “intestinal calcium transport activity compared with 1,25(OH)2D3 (in words)” value with Sprague-Dawley rats [3] was “significant net intestinal calcium transport; also recorded: comparable or slightly higher intestinal calcium transport compared to 1,25(OH)2D3”. For the same molecule, the “Net Bone Ca2+ Mobilization” value with Sprague-Dawley rats [4] (at 780 pM dosage) amounted to 0 mg/dL. In addition, the “bone calcium mobilization activity compared with 1,25(OH)2D3 (in words)” value in the test with Sprague-Dawley rats [4] (rat) was “much reduced ability to mobilize calcium from bone compared to 1,25-(OH)2D3; also recorded: no net calcemic activity on bone; also recorded: essentially no ability to mobilize bone calcium except at extremely high concentrations”. Also, the “bone calcium mobilization, times less potent than the native hormone” value in the test with Sprague-Dawley rats [4] (rat, fold LESS potent in releasing bone calcium stores) is listed as “approximately 50 times”.
As to `C=C1C(O)CC(=CC=C2CCCC3(C)C2CCC3[C@@H](C)CCCC(C)(C)O)CC1O` (single isomer, unassigned) [20R isomer of 2MD, 2-methylene-19-nor-1α,25-dihydroxyvitamin D3, reference compound], the “HL-60 cell differentiation, times more potent than the native hormone” value in the test with HL-60 cells turned out to be 0.95 times. In addition, the “net intestinal calcium transport, serosal to mucosal ratio” value in the test on Sprague-Dawley rats [3] is recorded as −0.6. Also, the “net bone calcium mobilization activity” value with Sprague-Dawley rats [4] (rat) is recorded as 4.5 mg/dL.
For `C=C1[C@H](O)CC(=C/C=C2\CCC[C@@]3(C)C2CC[C@@H]3[C@@H](C)[C@H](C)CCC(C)(C)O)C[C@H]1O` (stereo partly drawn) [AGS-1, (20S,22R)-2-methylene-19-nor-22-methyl-1α,25-dihydroxyvitamin D3], in test [1], a half-maximal response (EC50) required 0.008 nM and the “24OHase Transcription Relative Activity” value was 38. Besides, in test [1] (bone cells), the “24-hydroxylase transcription activity compared with 1,25(OH)2D3 (in words)” value is given as “relatively high 24-hydroxylase transcription activity”. For the same molecule, the “transcription of the 24-hydroxylase gene, times more potent than 1,25(OH)2D3” value in test [1] (bone cells, fold MORE potent) was roughly 40 times. Further, in the test on HL-60 cells, the “cell differentiation activity (in words)” value is on record as “relatively high cell differentiation activity”, the EC50 worked out at 0.01 nM and the “HL-60 Differentiation Relative Activity” value is on record as 300. In addition, in test [2], the “binding … compared with 1,25(OH)2D3 (in words)” value was “approximately equally effective as 1,25-(OH)2D3; also recorded: same affinity as 1,25(OH)2D3; also recorded: bind the vitamin D receptor” and the Ki came out at 0.07 nM. The “Net Intestinal Ca2+ Transport (serosal Ca2+ to mucosal Ca2+ ratio, S/M)” value in the test on Sprague-Dawley rats [3] (at 780 pM dosage) is listed as 9.9. Also, in the test with Sprague-Dawley rats [3], the “intestinal calcium transport activity compared with 1,25(OH)2D3 (in words)” value is given as “more potent than 1,25-(OH)2D3; also recorded: higher potency in promoting intestinal calcium transport than the native hormone; also recorded: significantly higher” and the “net intestinal calcium transport, serosal to mucosal ratio” value is reported as 4.3. For the same molecule, the “Net Bone Ca2+ Mobilization” value in the test with Sprague-Dawley rats [4] (at 780 pM dosage) was determined as 5.3 mg/dL. In addition, in the test on Sprague-Dawley rats [4] (rat), the “bone calcium mobilization activity compared with 1,25(OH)2D3 (in words)” value is given as “more potent than 1,25-(OH)2D3; also recorded: does show activity with regard to net bone calcium mobilization; also recorded: more efficacious; also recorded: significantly higher bone calcium mobilization activity”.
Take `C=C1[C@H](O)CC(=C/C=C2\CCC[C@@]3(C)C2CC[C@@H]3[C@H](C)[C@@H](C)CCC(C)(C)O)C[C@H]1O` (stereo partly drawn) [SAG-1, (20R,22S)-2-methylene-19-nor-22-methyl-1α,25-dihydroxyvitamin D3]: in test [1], the midpoint of the response, the EC50, lay at 0.3 nM and the “24OHase Transcription Relative Activity” value is given as 10. For the same molecule, in test [1] (bone cells), the “24-hydroxylase transcription activity compared with 1,25(OH)2D3 (in words)” value was “approximately equal in potency to 1,25(OH)2D3”. In addition, in the test with HL-60 cells, the “cell differentiation activity (in words)” value was “relatively high cell differentiation activity”, the EC50 is 0.6 nM and the “HL-60 Differentiation Relative Activity” value came out at 3.3. For the same molecule, in test [2], the “binding … compared with 1,25(OH)2D3 (in words)” value is recorded as “bind the vitamin D receptor” and the Ki worked out at 0.09 nM. Moreover, the “Net Intestinal Ca2+ Transport (serosal Ca2+ to mucosal Ca2+ ratio, S/M)” value with Sprague-Dawley rats [3] (at 260 pM dosage) is 1.3^7. In addition, in the test with Sprague-Dawley rats [3], the “intestinal calcium transport activity compared with 1,25(OH)2D3 (in words)” value is listed as “comparable or reduced potency in comparison to 1,25(OH)2D3 at lower concentrations but increased potency in comparison to 1,25(OH)2D3 at high concentrations”. In addition, the “Net Bone Ca2+ Mobilization” value with Sprague-Dawley rats [4] (at 260 pM dosage) is reported as 0.3^7 mg/dL. Also, the “bone calcium mobilization activity compared with 1,25(OH)2D3 (in words)” value in the test with Sprague-Dawley rats [4] (rat) is given as “less potent than 1,25-(OH)2D3; also recorded: no net calcemic activity on bone; also recorded: less potent than the native hormone; also recorded: little or no ability to mobilize bone calcium except at extremely high doses”.
Take `C=C1C(O)CC(=CC=C2CCCC3(C)C2CCC3[C@@H](C)CCCC(C)(C)O)CC1O` (single isomer, unassigned) [20S isomer of 2MD, 2-methylene-19-nor-1α,25-dihydroxyvitamin D3, reference compound]: the “HL-60 cell differentiation, times more potent than the native hormone” value with HL-60 cells worked out at 27 times. Further, the “net intestinal calcium transport, serosal to mucosal ratio” value in the test with Sprague-Dawley rats [3] is −0.9. In addition, in the test on Sprague-Dawley rats [4] (rat), the “net bone calcium mobilization activity” value turned out to be 9.3 mg/dL.

The term EC50 denotes the concentration that produces a half-maximal response. The low end stands for an effect from little substance, the high end for a need for much substance. As usually defined, the Ki is a dissociation constant, usually derived from enzyme kinetics or from competition with a known ligand.
